Data published in patent publication US20100099640A1, “TISSUE DEGENERATION PROTECTION” (priority 2007, published 2010).

How the values were obtained:
[1] = Body weight of DKO mice during the 12-week treatment period; format: in vivo, mouse; conditions: stevioside 10 mg/kg orally for 12 weeks (12 to 24 weeks of age); placebo 43%
Protocol: (§1) Homozygous LDL-receptor-knockout mice (LDLR^(−/−)), heterozygous ob/+, and C57BL6 mice were purchased from Jackson Laboratory, Bar Harbor, Me. LDLR^(−/−) mice were backcrossed into a C57BL6 background to the 10th generation. To obtain DKO mice with combined leptin deficiency (ob/ob) and LDL-receptor deficiency, LDLR^(−/−) and ob/+ mice were crossed. All offspring were genotyped by polymerase chain reaction (PCR) techniques. All mice were housed at 22° C. on a fixed 12/12-hour light/dark cycle. Experimental procedures in animals were performed in accordance with protocols approved by the Institutional Animal Care and Research Advisory Committee. All mice were fed standard chow containing 4% fat (Pavan Service). Food intake was ≈5.7 g/d. Mice (about 50 g) were treated with stevioside (N=14; 10 mg/kg), steviol (N=9; 5 mg/kg) or placebo (N=17) for 12 weeks between 12 and 24 weeks of age. Stevioside (Molecular weight: 804) was dissolved in water (1 mg/ml) and 500 μl of the solution was administered orally. Steviol (Molecular weight: 318) was dissolved in water containing 6% NaHCO3 (1 mg/ml) and 250 μl of the solution was administered orally.

[2] = system: RNA expression in white visceral (intra-abdominal) adipose tissue; assay: Real-time RT-PCR of RNA expression in white visceral adipose tissue of treated DKO mice; format: in vivo, mouse
Protocol: as §1
The level of RNA expression in extracts of white visceral (intra-abdominal) adipose tissue and aortic arch was measured by real-time reverse transcription (RT)-PCR. Total RNA was extracted with the Trizol reagent (InVitrogen) and purified on an RNeasy kit column (Qiagen). First-strand cDNA was generated from total RNA by RT using random primers from Takara and Superscript III reverse transcriptase (InVitrogen). Quantitative real-time PCR was performed using SybrGreen master mix according to the supplier protocols (Applied Biosystems).). Oligonucleotides (InVitrogen) used as forward primer (F) and reverse primer (R) were: for mouse PPARalpha: F: 5′-[…]-3′; R: 5′-[…]-3′; for mouse PPARgamma: F: 5′-[…]-3′; R: 5′-GTCAGCGGGTGGGACTTTC-3′; for mouse FABP4: F: 5′-AACTGGGCGTGGAATTCG-3′; R: 5′-[…]-3′; for mouse iNOS: F: 5′-[…]-3′; R: 5′-[…]-3′; for mouse GLUT-4: F: 5′-[…]-3′; R: 5′-[…]-3′; for mouse IRS-1: F: 5′-[…]-3′; R: 5′-CGCCTCGGGAAGAGACAGT-3′; for mouse IRS-2: F: 5′-[…]-3′: R: 5′-[…]-3′; for mouse LXRalpha: F: 5′-[…]-3′; R: 5′-[…]-3′; for mouse SOD1: F: 5′-[…]-3′; R: 5′-[…]-3′; for mouse SOD2: F: 5′-TCGGTGGCGTTGAGATTGT; R: 5′-[…]-3′; for mouse SOD3: F: 5′-[…]-3′; R: 5′-GCTGCCGGAAGAGAACCAA-3′; and for mouse β-actin (housekeeping gene), F: 5′-[…]-3′; R: 5′-[…]-3′. The level of mRNA expression was calculated using the threshold cycle (Ct) value, i.e., the number of PCR cycles at which the fluorescent signal during the PCR reaches a fixed threshold. For each sample, the Ct both for the gene of interest and for the housekeeping gene β-actin were determined to calculate ΔCt,sample (Ct,target gene−Ct,housekeeping gene), thus normalizing the data and correcting for differences in amount and/or quality between the different RNA samples. The expression levels were related to an external calibrator consisting of intra-abdominal adipose tissue from C57BL6 control mice. Subsequently, ΔΔCt (ΔCt,sample−ΔCt,calibrator) was determined, and the relative expression levels were calculated from 2^−ΔΔCt according to the manufacturer's instructions (Applied Biosystems). RNA expression levels are thus indicated as arbitrary units ±SD

[3] = system: 3T3-L1 adipocytes; assay: Triglyceride (Oil red O) accumulation during differentiation of 3T3-L1 adipocytes; format: cell-based, mouse
Protocol: 3T3-L1 mouse preadipocytes were purchased from the American Type Culture Collection (ATCC). They are cultivated in DHG medium (Dulbecco's modified Eagle's medium+High Glucose 4.5 g/l, GibcoBRL) supplemented with 10% FCS (foetal calf serum, GibcoBRL) and incubated a 37 C+5% CO2 incubator in a humidified atmosphere. For pre-adipocyte differentiation, 3T3-L1 cells were seeded at 50% confluence 3 days before the beginning of the differentiation programme. Confluent cell monolayers (day 0) are switched for 48 h to media containing the adipogenic cocktail: “DHG-L1” medium (DHG that contains 1.5 g/l NaHCO3) supplemented with 10% FCS, 5 μg/ml insulin, 300 μM dibutyryl-cyclicAMP (dbcAMP) and 1 μM dexamethasone. The cells were then refeeded every other day with DHG-L1 containing 10% FCS and 5 μg/ml insulin. At the end, 80-90% of cells were differentiated. […]
To characterize the state of (de)differentiation obtained in the presence of the molecules of interest, triglycerides present in the cells were stained with Oil red O (a dye of the neutral lipids). The absorbance of cell monolayers at 490 nm was measured in a spectrophotometer.

[4] = system: healthy subjects; assay: Stevioside 250 mg capsules thrice daily in healthy subjects; format: in vivo, human; conditions: 10 healthy subjects
Description: The present invention relates to the diterpenoic tetrahydropyran, steviol-19-glucuronide (a natural metabolite of stevioside) and other diterpenoic tetrahydropyran derivatives. […] However, oral administration of stevioside results in the surprising finding that it increases the expression and activity of PPARs, and that it exerts system biological effects to normalise lipid metabolism and to inhibit the formation atherosclerotic cardiovascular disease.

[5] = system: mouse pancreatic islets, β-cell line INS-1; conditions: direct action on β-cells; cited from earlier work
[6] = system: diabetic rats; conditions: blood of diabetic rats; cited from earlier work
[7] = system: bacteria of the colon; conditions: cited from earlier work
[8] = adipose tissue, stevioside 10 mg/kg orally, 12 weeks
[9] = adipose tissue, treatment with stevioside
[10] = time points 3 days after administration

expression of catalase [2, 9]: increased expression
expression of the insulin receptor (INSR) [2, 9]: increased expression
24-hour urinary volume [4]: not significantly different
urinary excretion of electrolytes [4]: not significantly different
blood biochemical parameters, control vs stevioside condition [4, 10]: does not provide significant differences
Structure (SMILES): C=C1C[C@@]23CC[C@H]4C(C)(CCC[C@@]4(C)C(=O)O[C@@H]4O[C@H](CO)C(O)[C@H](O)C4O)[C@@H]2CCC1(OC1O[C@H](CO)C(O)C(O)C1OC1O[C@H](CO)C(O)[C@H](O)C1O)C3 (stereo in doubt) [stevioside, Kaur-16-en-18-oic acid, 13-[(2-O-b-D-glucopyranosyl-b-D-glucopyranosyl)oxy]-, b-D-glucopyranosyl ester, (4a)-]
increase of weight during the treatment period [1]: 41%
LPL expression ([2]; adipose tissue of stevioside-treated mice): not associated with a change
expression of FABP-4 [2, 8]: increased expression
expression of GLUT-4 [2, 8]: increased expression
expression of IRS-1 [2, 8]: increased expression
expression of IRS-2 [2, 8]: increased expression
expression of LXRalpha [2, 8]: increased expression
expression of PPARalpha [2, 8]: increased expression
expression of PPARgamma [2, 8]: increased expression
expression of the antioxidant SOD3 [2, 8]: increased expression
expression of CD36 [2, 9]: increased expression
triglyceride accumulation in adipocytes ([3]; 50-micromolar (lowest concentration), added during the 7-days differentiation process): did not significantly reduce
lipid deposition (triglyceride accumulation) in adipocytes ([3]; 200-micromolar (4x higher concentration), added during differentiation, steviol dissolved with DMSO): inhibited
mean blood glucose, control vs stevioside condition [4]: no significant difference
mean insulin, control vs stevioside condition [4]: no significant difference
blood pressure, control vs stevioside condition [4, 10]: does not provide significant differences
insulin secretion [5]: stimulation of insulin secretion
HDL-cholesterol [6]: increases
serum concentration of LDL cholesterol [6]: lowers
serum concentration of triglycerides [6]: lowers
degradation by bacteria of the colon [7]: degraded
